The values that follow come from ChEMBL document CHEMBL1201862, “PubChem BioAssay data set” (2004).

As usually defined, the EC50 is the concentration needed to bring the measured effect to its halfway point. What is called IC50 is the concentration needed to halve the response being measured. A word on the CC50: it is the concentration giving 50% cytotoxicity. As usually defined, the AC50 is the midpoint of the concentration-response curve, whichever way the signal moves.

The source made the active and inactive calls.

The subject of experiment [1] is Streptococcus sp. 'group A'. Put plainly: growth inhibition of control SK(-) GAS strain, dose response, counter-screen for streptokinase expression inhibitor project, luminescence, kanamycin, BacTiterGlo, confirmation (AID 1900). Format: functional, organism-based. Background: Counterscreens check selectivity or assay interference.
The target of experiment [2] is T1, Streptokinase A (Streptococcus pyogenes serotype M1, UniProt P10520).
T1 sequence (P10520 whole entry): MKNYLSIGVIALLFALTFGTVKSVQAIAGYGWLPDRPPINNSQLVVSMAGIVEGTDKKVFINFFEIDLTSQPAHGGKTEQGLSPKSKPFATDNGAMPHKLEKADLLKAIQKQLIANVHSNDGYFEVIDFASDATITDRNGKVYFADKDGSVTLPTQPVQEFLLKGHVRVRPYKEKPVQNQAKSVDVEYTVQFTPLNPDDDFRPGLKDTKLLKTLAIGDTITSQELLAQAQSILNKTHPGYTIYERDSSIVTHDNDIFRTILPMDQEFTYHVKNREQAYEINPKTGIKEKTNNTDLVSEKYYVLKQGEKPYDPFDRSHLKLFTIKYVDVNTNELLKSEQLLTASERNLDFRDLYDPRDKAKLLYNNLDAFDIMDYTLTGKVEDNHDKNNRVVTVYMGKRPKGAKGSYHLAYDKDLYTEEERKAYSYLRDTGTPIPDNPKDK
As to the kind of experiment: S. pyogenes streptokinase expression inhibitors, potency, dose response, plasminogen activation absorbance, OD405 (AID 1914).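 Also: secreted streptokinase activity via plasminogen activation per viability signal from cell pellet.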 In kind it is functional, Streptococcus pyogenes M1 GAS.

In experiment [3] the test system is Streptococcus. As to the kind of experiment: Group A Streptococcus viability loss, dose response, counter-screen for streptokinase expression inhibitor project, luminescence, BacTiterGlo (AID 1915).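 Also: potency for reduction of bacterial viability or growth.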 Format: functional, organism-based.
The target of experiment [4] is T2, Exodeoxyribonuclease V (Escherichia coli (strain K12), UniProt P04993+P07648+P08394).
T2 sequence (P04993 whole entry): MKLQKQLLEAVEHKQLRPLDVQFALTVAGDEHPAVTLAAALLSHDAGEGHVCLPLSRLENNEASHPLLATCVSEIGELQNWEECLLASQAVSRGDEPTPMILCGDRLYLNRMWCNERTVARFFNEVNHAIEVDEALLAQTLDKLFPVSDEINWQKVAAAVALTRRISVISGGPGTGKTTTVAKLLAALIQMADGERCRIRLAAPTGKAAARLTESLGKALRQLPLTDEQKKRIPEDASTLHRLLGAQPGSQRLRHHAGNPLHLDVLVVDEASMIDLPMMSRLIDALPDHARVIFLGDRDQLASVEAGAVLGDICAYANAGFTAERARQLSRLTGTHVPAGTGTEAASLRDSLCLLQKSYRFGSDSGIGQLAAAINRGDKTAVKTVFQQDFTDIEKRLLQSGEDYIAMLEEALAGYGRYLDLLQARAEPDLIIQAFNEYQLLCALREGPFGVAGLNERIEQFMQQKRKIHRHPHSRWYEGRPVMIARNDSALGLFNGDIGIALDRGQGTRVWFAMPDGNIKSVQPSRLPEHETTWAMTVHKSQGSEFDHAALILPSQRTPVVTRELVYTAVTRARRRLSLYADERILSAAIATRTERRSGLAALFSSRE
T2 sequence (P07648 whole entry): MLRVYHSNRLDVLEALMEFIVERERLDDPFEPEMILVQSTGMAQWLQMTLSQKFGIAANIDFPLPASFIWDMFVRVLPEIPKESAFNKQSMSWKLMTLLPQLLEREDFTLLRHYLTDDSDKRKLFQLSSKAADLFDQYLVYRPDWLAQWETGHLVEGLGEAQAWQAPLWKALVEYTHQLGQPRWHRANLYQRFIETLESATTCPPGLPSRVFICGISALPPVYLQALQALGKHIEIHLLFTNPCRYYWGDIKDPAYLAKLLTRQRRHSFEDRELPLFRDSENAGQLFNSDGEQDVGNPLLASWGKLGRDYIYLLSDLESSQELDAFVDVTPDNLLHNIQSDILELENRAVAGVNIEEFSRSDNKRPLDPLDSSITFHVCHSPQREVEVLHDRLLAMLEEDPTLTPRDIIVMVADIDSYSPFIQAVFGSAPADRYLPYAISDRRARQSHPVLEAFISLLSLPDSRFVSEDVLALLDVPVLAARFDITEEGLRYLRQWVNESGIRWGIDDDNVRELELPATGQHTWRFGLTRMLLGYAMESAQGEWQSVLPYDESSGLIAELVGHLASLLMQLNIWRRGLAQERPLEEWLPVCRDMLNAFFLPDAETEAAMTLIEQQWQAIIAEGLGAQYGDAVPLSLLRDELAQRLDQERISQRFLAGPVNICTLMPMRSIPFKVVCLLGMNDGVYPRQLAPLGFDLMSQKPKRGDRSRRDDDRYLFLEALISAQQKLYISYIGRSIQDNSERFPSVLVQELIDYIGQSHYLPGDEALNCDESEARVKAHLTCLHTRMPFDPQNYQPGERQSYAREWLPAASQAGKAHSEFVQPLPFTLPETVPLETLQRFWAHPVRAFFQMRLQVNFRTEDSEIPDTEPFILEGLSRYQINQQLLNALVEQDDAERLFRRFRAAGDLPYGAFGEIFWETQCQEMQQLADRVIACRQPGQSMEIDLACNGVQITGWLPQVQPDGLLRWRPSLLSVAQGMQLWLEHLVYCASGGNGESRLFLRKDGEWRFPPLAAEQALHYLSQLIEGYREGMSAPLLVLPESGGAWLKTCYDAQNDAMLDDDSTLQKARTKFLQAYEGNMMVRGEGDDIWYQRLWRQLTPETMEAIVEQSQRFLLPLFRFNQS
T2 sequence (P08394 whole entry): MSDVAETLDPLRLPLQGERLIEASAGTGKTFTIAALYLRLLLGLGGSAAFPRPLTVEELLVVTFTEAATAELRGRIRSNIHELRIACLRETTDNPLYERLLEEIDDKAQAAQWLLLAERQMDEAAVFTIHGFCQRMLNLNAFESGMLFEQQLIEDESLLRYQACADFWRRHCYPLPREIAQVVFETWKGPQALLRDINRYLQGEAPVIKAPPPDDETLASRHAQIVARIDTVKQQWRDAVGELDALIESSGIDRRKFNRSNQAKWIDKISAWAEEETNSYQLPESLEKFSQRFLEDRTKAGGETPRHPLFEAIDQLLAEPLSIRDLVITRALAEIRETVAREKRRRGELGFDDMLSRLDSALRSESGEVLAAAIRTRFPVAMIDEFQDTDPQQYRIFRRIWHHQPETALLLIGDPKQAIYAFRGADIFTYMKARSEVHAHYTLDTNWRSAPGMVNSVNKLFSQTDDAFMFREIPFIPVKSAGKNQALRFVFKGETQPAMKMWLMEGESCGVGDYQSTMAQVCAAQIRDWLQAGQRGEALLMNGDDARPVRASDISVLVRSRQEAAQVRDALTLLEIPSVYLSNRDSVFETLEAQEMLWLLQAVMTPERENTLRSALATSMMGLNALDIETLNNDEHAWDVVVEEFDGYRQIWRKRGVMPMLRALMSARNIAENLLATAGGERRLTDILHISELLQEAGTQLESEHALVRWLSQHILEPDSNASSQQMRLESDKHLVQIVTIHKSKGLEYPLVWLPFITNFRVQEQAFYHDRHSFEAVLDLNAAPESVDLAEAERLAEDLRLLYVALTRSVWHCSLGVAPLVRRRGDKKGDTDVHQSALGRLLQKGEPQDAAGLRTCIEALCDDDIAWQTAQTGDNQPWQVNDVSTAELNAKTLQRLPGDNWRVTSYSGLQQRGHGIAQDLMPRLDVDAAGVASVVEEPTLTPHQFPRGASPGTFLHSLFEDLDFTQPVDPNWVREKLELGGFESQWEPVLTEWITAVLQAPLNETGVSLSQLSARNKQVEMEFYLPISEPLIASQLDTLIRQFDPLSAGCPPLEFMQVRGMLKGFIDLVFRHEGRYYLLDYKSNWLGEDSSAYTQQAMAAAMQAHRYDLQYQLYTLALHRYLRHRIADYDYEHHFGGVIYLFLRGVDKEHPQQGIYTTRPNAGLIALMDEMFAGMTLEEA
As to the kind of experiment: E. coli RecBCD inhibitors, dose response, counter-screen for AddAB inhibitor project, absorbance, V66 E. coli, mutant T4 phage (AID 492957). Format: functional, cell-based, Escherichia coli str. K-12 substr. MG1655.

Experiment [5] can be described thus: Counterscreen for AddAB inhibitors: absorbance-based bacterial cell-based high throughput dose response assay for inhibitors of bacterial viability. [Related pubchem assays (depositor defined):AID435030, AID449728, AID449731, AID488942, AID488955, AID488956]. In kind it is functional.
Experiment [6] can be described thus: HeLa cell cytotoxicity, dose response, cytotoxicity control for MgcRacGAP inhibitor project (AID 624300). Format: functional.
Experiment [7] can be described thus: Luminescence Cell-Based Dose Retest to Confirm Inhibitors of Cancer Stem Cells. [Related pubchem assays (depositor defined):AID2717, AID2721]. As to conditions: Homo sapiens. In kind it is functional.
Experiment [8] is described as follows: cytotoxicity in HMLE control line with eGFP shRNA, dose response, counter-screen for HMLE_sh_ECad selective toxicity project, cell-based, HMLE_sh_eGFP, luminescence (AID 463074).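 Also: HMLE human mammary epithelial cells expressing control shRNA against eGFP.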 Format: functional, Homo sapiens.
The subject of experiment [9] is INS1. As to the kind of experiment: beta cell apoptosis inhibitors, cytokine rescue, dose response, luminescence, retest (AID 449756).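 Also: cell death triggered by IL-1 beta plus TNF-alpha plus IFN-gamma mixture; protective hits raise ATP signal compared with cytokine alone wells.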 Conditions: Rattus norvegicus. In kind it is functional, cell-based.
Experiment [10] deals with BJ. As to the kind of experiment: cytotoxicity toward BJ-TERT fibroblasts, dose response, cell-based, RAS-independent, luminescence (AID 1933). In kind it is functional. Conditions: Homo sapiens.
The test system of experiment [11] is BJ. Put plainly: cells. As to conditions: Homo sapiens. Format: functional, cell-based.
Experiment [12] concerns BJ. Put plainly: cytotoxicity toward BJ-TERT-LT-ST fibroblasts, dose response, cell-based, RAS-independent, luminescence (AID 1935).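 Also: BJ fibroblasts immortalized with TERT plus LT and ST oncogenes.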 As to conditions: Homo sapiens. In kind it is functional.
The nature of experiment [13]: cytotoxicity toward DRD oncogenic fibroblasts, dose response, cell-based, non-viral oncogenic, luminescence (AID 1934). In kind it is functional. As to conditions: Homo sapiens.
The target in experiment [14] is T3, Endoribonuclease toxin MazF (Escherichia coli K-12, UniProt P0AE70).
T3 sequence (P0AE70 whole entry): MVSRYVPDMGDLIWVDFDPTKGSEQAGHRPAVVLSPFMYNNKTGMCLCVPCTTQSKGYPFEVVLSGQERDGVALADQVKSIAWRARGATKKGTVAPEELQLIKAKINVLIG
As to the kind of experiment: MazF toxin RNase activators, dose response, biochemical, fluorescence, single-stranded RNA substrate, uHTS hits (AID 588481). Format: functional.

The target in experiment [15] is T3, Endoribonuclease toxin MazF. Put plainly: fluorescent RNA oligo signal without MazF, dose response, counter-screen for MazEF activator project, biochemical, fluorescence, single-stranded RNase substrate (AID 588502). Format: functional.

Turning to `O=C(NC(NC(=S)Nc1ccc(Cl)c(Cl)c1)C(Cl)(Cl)Cl)c1ccco1` (stereo unspecified), the concentration giving a half-maximal response (EC50) in experiment [1] is 4.32 µM (active); in experiment [2], 10.9 µM (active); in experiment [3], 10.9 µM (active). Further, the IC50 in [4] and in [5] was > 119 µM (inactive) each time. The CC50 in [6] was 57.7 µM (active).

Regarding `Cc1ccc(N/N=C(\Cc2nc3ccccc3[nH]2)c2ccccc2)cc1`, the figures for the AC50 in experiment [7] and in experiment [8] were 0.47 µM (active) and 0.385 µM (inconclusive), respectively.

Consider `C=CCc1cccc(/C=N/NC(=O)CCC(=O)Nc2ccc(F)cc2)c1O`, for which the IC50 in experiment [4] and in experiment [5] was > 119 µM (inactive) in each case. Further, the AC50 in experiment [9] is 3.18 µM (active).

For the compound `Cc1cccc(NC(=S)N/N=C/c2cccc(O)c2)c1C`, the EC50 in [10] is 11.3 µM (active); in experiment [11] it was 26 µM (inconclusive); in experiment [12] it was 2.91 µM (active); in [13] it was 2.75 µM (active). Besides, the AC50 is 1.15 µM (active) in [7] and 33.7 µM (active) in experiment [8].

With `O=[N+]([O-])c1ccc2[nH]c(O)c(N=Nc3ccc(F)cc3)c2c1`, the EC50 was > 99 µM (inactive) in experiment [14] and 20.3 µM (inactive) in experiment [15].

As for `Cc1cc(N/N=C/c2ccc([N+](=O)[O-])o2)nc2ccccc12`, the IC50 in [4] and in [5] was > 118 µM (inactive) throughout.
